Source: patent US6737383B1, “Herbicidal oxadiazolidines” (priority 1999, dated 2004)

Key:
surinam grass = assay: Test B pre/postemergence surinam grass; assay type: in vivo, Brachiaria decumbens
Outline: (§1)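 Response is a visual 0-to-10 score relative to untreated plants, where 0 means no effect and 10 means complete control, taken twelve to sixteen days after application. Treatments went onto soil at planting and onto foliage of 1- to 4-leaf plants, using a surfactant-containing non-phytotoxic solvent.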

corn = assay: Test B pre/postemergence corn; assay type: in vivo, Zea mays
Outline: as §1

pigweed = assay: Test B pre/postemergence pigweed; assay type: in vivo, Amaranthus retroflexus
Outline: as §1

wheat = assay: Test B pre/postemergence wheat; assay type: in vivo, Triticum aestivum
Outline: as §1

bedstraw = assay: Test B pre/postemergence bedstraw; assay type: in vivo, Galium aparine; details: Rate 62 g/ha
Outline: as §1

sugar beet = assay: Test B pre/postemergence sugar beet; assay type: in vivo, Beta vulgaris
Outline: as §1

giant foxtail = assay: Test B pre/postemergence giant foxtail; assay type: in vivo, Setaria faberii
Outline: as §1

purple nutsedge = assay: Test B pre/postemergence purple nutsedge; assay type: in vivo, Cyperus rotundus
Outline: as §1

rape = assay: Test B pre/postemergence rape; assay type: in vivo, Brassica napus
Outline: as §1

cocklebur = assay: Test B pre/postemergence cocklebur; assay type: in vivo, Xanthium strumarium
Outline: as §1

crabgrass = assay: Test B pre/postemergence crabgrass; assay type: in vivo, Digitaria sanguinalis
Outline: as §1

soybean = assay: Test B pre/postemergence soybean; assay type: in vivo, Glycine max
Outline: as §1

morningglory = assay: Test B pre/postemergence morningglory; assay type: in vivo, Ipomoea hederacea
Outline: as §1

blackgrass = assay: Test B pre/postemergence blackgrass; assay type: in vivo, Alopecurus myosuroides
Outline: as §1

velvetleaf = assay: Test B pre/postemergence velvetleaf; assay type: in vivo, Abutilon theophrasti
Outline: as §1

wild oat = assay: Test B pre/postemergence wild oat; assay type: in vivo, Avena fatua
Outline: as §1

[1] = Postemergence, Rate 62 g/ha, scale of 0 to 10, 0 is no effect, 10 is complete control
[2] = Postemergence, Rate 125 g/ha, scale 0 to 10, 0 is no effect, 10 is complete control
[3] = Postemergence, Rate 500 g/ha, scale 0 to 10, 0 is no effect, 10 is complete control
[4] = Preemergence, Rate 62 g/ha, scale of 0 to 10 where 0 is no effect and 10 is complete control
[5] = Preemergence, Rate 125 g/ha, scale 0 to 10, 0 is no effect, 10 is complete control
[6] = Rate 250 g/ha, Postemergence, scale of 0 to 10 where 0 is no effect and 10 is complete control
[7] = Preemergence, Rate 500 g/ha, scale of 0 to 10 where 0 is no effect and 10 is complete control

## CCCCn1c(=O)on(C(=O)N(c2ccc(Cl)cc2)C(C)C)c1=O [Compound 527]
Surinam grass; [1]
  B. signalgrass plant response rating: 0
Surinam grass; [2]
  B. signalgrass plant response rating: 0
Surinam grass; [3]
  Plant response rating, B. signalgrass: 9
Surinam grass; [4]
  Plant response rating, B. signalgrass: 2
Surinam grass; [5]
  B. signalgrass plant response rating: 2
Surinam grass; Preemergence, Rate 250 g/ha
  B. signalgrass plant response rating (0 to 10 scale, 0 is no effect, 10 is complete control): 4
Surinam grass; [6]
  Plant response rating, B. signalgrass: 0
corn; [1]
  Corn plant response rating: 0
corn; [2]
  Corn plant response rating: 0
corn; [3]
  Plant response rating, Corn: 0
corn; [4]
  Plant response rating, Corn: 0
corn; [5]
  Corn plant response rating: 0
corn; Preemergence, Rate 250 g/ha
  Corn plant response rating (0 to 10 scale): 0
corn; [7]
  Corn plant response rating: 0
corn; [6]
  Plant response rating, Corn: 0
pigweed; [1]
  Redroot pigweed plant response rating: 0
pigweed; [2]
  Redroot pigweed plant response rating: 0
pigweed; [3]
  Plant response rating, Redroot pigweed: 0
pigweed; [4]
  Plant response rating, Redroot pigweed: 0
pigweed; [5]
  Redroot pigweed plant response rating: 4
pigweed; Preemergence, Rate 250 g/ha
  Redroot pigweed plant response rating (0 to 10 scale): 4
pigweed; [7]
  Redroot pigweed plant response rating: 4
pigweed; [6]
  Plant response rating, Redroot pigweed: 0
wheat; [1]
  Wheat plant response rating: 0
wheat; [2]
  Wheat plant response rating: 0
wheat; [3]
  Plant response rating, Wheat: 0
wheat; [4]
  Plant response rating, Wheat: 0
wheat; [5]
  Wheat plant response rating: 0
wheat; Preemergence, Rate 250 g/ha
  Wheat plant response rating (0 to 10 scale): 0
wheat; [6]
  Plant response rating, Wheat: 0
bedstraw; Postemergence, scale of 0 to 10, 0 is no effect, 10 is complete control
  Bedstraw plant response rating: 0
bedstraw; Preemergence, scale of 0 to 10 where 0 is no effect and 10 is complete control
  Plant response rating, Bedstraw: 0
Sugar beet; [1]
  Sugarbeets plant response rating: 0
Sugar beet; [2]
  Sugarbeets plant response rating: 0
Sugar beet; [3]
  Plant response rating, Sugarbeets: 2
Sugar beet; [4]
  Plant response rating, Sugarbeets: 0
Sugar beet; [5]
  Sugarbeets plant response rating: 6
Sugar beet; Preemergence, Rate 250 g/ha
  Sugarbeets plant response rating (0 to 10 scale): 6
Sugar beet; [7]
  Sugarbeets plant response rating: 6
Sugar beet; [6]
  Plant response rating, Sugarbeets: 0
Giant foxtail; [1]
  Giant foxtail plant response rating: 5
Giant foxtail; [2]
  Giant foxtail plant response rating: 8
Giant foxtail; [3]
  Plant response rating, Giant foxtail: 9
Giant foxtail; [4]
  Plant response rating, Giant foxtail: 9
Giant foxtail; [5]
  Giant foxtail plant response rating: 10
Giant foxtail; Preemergence, Rate 250 g/ha
  Giant foxtail plant response rating (0 to 10 scale): 10
Giant foxtail; [7]
  Giant foxtail plant response rating: 10
Giant foxtail; [6]
  Plant response rating, Giant foxtail: 8
Purple nutsedge; [1]
  Nutsedge plant response rating: 0
Purple nutsedge; [4]
  Plant response rating, Nutsedge: 0
Purple nutsedge; [5]
  Nutsedge plant response rating: 0
Purple nutsedge; Preemergence, Rate 250 g/ha
  Nutsedge plant response rating (0 to 10 scale): 0
Purple nutsedge; [7]
  Nutsedge plant response rating: 0
Purple nutsedge; [6]
  Plant response rating, Nutsedge: 0
rape; [1]
  Rape plant response rating: 0
rape; [2]
  Rape plant response rating: 0
rape; [3]
  Plant response rating, Rape: 2
rape; [4]
  Plant response rating, Rape: 0
rape; [5]
  Rape plant response rating: 2
rape; Preemergence, Rate 250 g/ha
  Rape plant response rating (0 to 10 scale): 2
rape; [6]
  Plant response rating, Rape: 0
cocklebur; [1]
  Cocklebur plant response rating: 0
cocklebur; [2]
  Cocklebur plant response rating: 0
cocklebur; [3]
  Plant response rating, Cocklebur: 2
cocklebur; [4]
  Plant response rating, Cocklebur: 0
cocklebur; [5]
  Cocklebur plant response rating: 0
cocklebur; Preemergence, Rate 250 g/ha
  Cocklebur plant response rating (0 to 10 scale): 0
cocklebur; [7]
  Cocklebur plant response rating: 3
cocklebur; [6]
  Plant response rating, Cocklebur: 2
crabgrass; [1]
  Crabgrass plant response rating: 4
crabgrass; [2]
  Crabgrass plant response rating: 4
crabgrass; [3]
  Plant response rating, Crabgrass: 10
crabgrass; [4]
  Plant response rating, Crabgrass: 9
crabgrass; [5]
  Crabgrass plant response rating: 10
crabgrass; Preemergence, Rate 250 g/ha
  Crabgrass plant response rating (0 to 10 scale): 10
crabgrass; [7]
  Crabgrass plant response rating: 10
crabgrass; [6]
  Plant response rating, Crabgrass: 9
soybean; [1]
  Soybean plant response rating: 3
soybean; [2]
  Soybean plant response rating: 4
soybean; [3]
  Plant response rating, Soybean: 5
soybean; [4]
  Plant response rating, Soybean: 0
soybean; [5]
  Soybean plant response rating: 0
soybean; Preemergence, Rate 250 g/ha
  Soybean plant response rating (0 to 10 scale): 0
soybean; [7]
  Soybean plant response rating: 0
soybean; [6]
  Plant response rating, Soybean: 4
morningglory; [1]
  Morningglory plant response rating: 3
morningglory; [2]
  Morningglory plant response rating: 3
morningglory; [3]
  Plant response rating, Morningglory: 6
morningglory; [4]
  Plant response rating, Morningglory: 0
morningglory; [5]
  Morningglory plant response rating: 0
morningglory; Preemergence, Rate 250 g/ha
  Morningglory plant response rating (0 to 10 scale): 0
morningglory; [7]
  Morningglory plant response rating: 2
morningglory; [6]
  Plant response rating, Morningglory: 5
blackgrass; [1]
  Blackgrass plant response rating: 0
blackgrass; [2]
  Blackgrass plant response rating: 3
blackgrass; [3]
  Plant response rating, Blackgrass: 7
blackgrass; [4]
  Plant response rating, Blackgrass: 0
blackgrass; [5]
  Blackgrass plant response rating: 2
blackgrass; Preemergence, Rate 250 g/ha
  Blackgrass plant response rating (0 to 10 scale): 2
blackgrass; [6]
  Plant response rating, Blackgrass: 4
velvetleaf; [1]
  Velvetleaf plant response rating: 3
velvetleaf; [2]
  Velvetleaf plant response rating: 2
velvetleaf; [3]
  Plant response rating, Velvetleaf: 3
velvetleaf; [4]
  Plant response rating, Velvetleaf: 0
velvetleaf; [5]
  Velvetleaf plant response rating: 2
velvetleaf; Preemergence, Rate 250 g/ha
  Velvetleaf plant response rating (0 to 10 scale): 2
velvetleaf; [7]
  Velvetleaf plant response rating: 2
velvetleaf; [6]
  Plant response rating, Velvetleaf: 3
Wild oat; [1]
  Wild oats plant response rating: 0
Wild oat; [2]
  Wild oats plant response rating: 0
Wild oat; [3]
  Plant response rating, Wild oats: 0
Wild oat; [4]
  Plant response rating, Wild oats: 0
Wild oat; [5]
  Wild oats plant response rating: 0
Wild oat; Preemergence, Rate 250 g/ha
  Wild oats plant response rating (0 to 10 scale): 3
Wild oat; [6]
  Plant response rating, Wild oats: 0
